One series is described as follows: Aqueous solubility. In kind it is physicochemical. From the text:
Table 5 presents the results.

Series [1] is described as follows: Solvent properties (density, boiling point, flash point, freezing point, viscosity). In kind it is physicochemical. The source says:
Isopropyl 2-hydroxy-4-(methylsulfinyl)butanoate (also called iC3SO) has the following properties.
Green or regular hard surface cleaner or degreaser formulations containing commercial surfactants or a mixture (i.e., monomers, dimers, and short oligomers) of octyl 2-hydroxy-4-(methylsulfinyl)butanoate (also called “C8SO”) were formulated, as shown in Table 2 below. The density of C8SO is 1.08 g/mL.

Where [2] appears, read: in water at 25° C. and atmospheric pressure.

Turning to `CCCCCCOC(=O)C(O)CC[S+](C)[O-]` (centres unmarked) [Hexyl 2-Hydroxy-4-(Methylsulfinyl)Butanoate], the “Solubility (wt/wt total)” value in “Aqueous solubility” (setting [2]) is given as greater than 50.0 wt %. For the compound `CCCCCCCCNC(=O)C(O)CC[S+](C)[O-]` (centres unmarked) [2-Hydroxy-4-(Methylsulfinyl)-N-Octylbutanamide], in the series “Aqueous solubility” (setting [2]), the “Solubility (wt/wt total)” value was greater than 50.0 wt %. Still for that read-out and setting: under `CCCCOC(=O)C(O)CCSC` (centres unmarked) [Butyl 2-hydroxy-4-(methylthio)butanoate, Butyl 2-Hydroxy-4-(Methylthio)Butanoate] stands 0.9 wt %; under `CCCCCCCCCCOC(=O)C(O)CCS(C)(=O)=O` (centres unmarked) [Decyl 2-Hydroxy-4-(Methylsulfonyl)Butanoate], less than 0.1 wt %. Turning to `COC(=O)C(O)CC[S+](C)[O-]` (centres unmarked) [Methyl 2-Hydroxy-4-(Methylsulfinyl)Butanoate], the “Solubility (wt/wt total)” value in “Aqueous solubility” (in water, marked *Theoretical) is greater than 50% wt %. In the case of `CSCCC(O)C(=O)OC(C)C` (centres unmarked) [Isopropyl 2-hydroxy-4-(methylthio)butanoate], the “Solubility (wt/wt total)” value in the series “Aqueous solubility” (setting [2]) stood at 2.5 wt %. For `CCCCOC(=O)C(O)CC[S+](C)[O-]` (centres unmarked) [Butyl 2-Hydroxy-4-(Methylsulfinyl)Butanoate], the “Solubility (wt/wt total)” value in the series “Aqueous solubility” (in water, marked *Theoretical) is greater than 50% wt %. With `CCCCCCCCOC(=O)C(O)CC[S+](C)[O-]` (centres unmarked) [Octyl 2-Hydroxy-4-(Methylsulfinyl)Butanoate], the “Solubility (wt/wt total)” value in “Aqueous solubility” (setting [2]) is greater than 50.0 wt %. On to `CC(C)OC(=O)C(O)CC[S+](C)[O-]` (centres unmarked) [iC3SO, Isopropyl 2-hydroxy-4-(methylsulfinyl)butanoate], for which the “Solubility (wt/wt total)” value in the series “Aqueous solubility” (in water, marked *Theoretical) is reported as greater than 50% wt %. Further, in series [1], the “Boiling Point” value was determined as 248° ° C, the Density is listed as 1.17 g/mL, the “Flash Point” value stood at 194° ° C and the “Freezing Point” value is less than −90° ° C. Further, the Viscosity in series [1] came to 519 cps.

Values taken from patent US10227551B2, “Sulfur-containing compounds as solvents” (Novus International, Inc., priority 2015, dated 2019).
